According to patent publication US20230295162A1 (EÖTVÖS LORÁND TUDOMÁNYEGYETEM, priority 2020, published 2023):
Read-outs that look alike come from different tables or passages of the source.

How the values were obtained:
[1] = system: MDA-MB-231 (breast, adenocarcinoma) cells; assay: Cell viability assay, CellTiter-Glo (Example 21); format: cell-based, human; conditions: 72 h treatment
Procedure: (§1) Effect of the selected compounds on cancer cell viability was measured via CellTiter-Glo® luminescent cell viability assay (Promega, Madison, WI, USA) according to the manufacturer's instructions. Cells were plated onto a flat-bottomed, white 96 well plate (BRANDplates®, cat. no.: 781965). Density of the seeded cells was optimized based on their size and growth rate, as the follows: Panc-1:750 cells/well; DU 145, PC-3, Capan-1, MIA PaCa-2, SCC-25, FaDu and EBC-1: 1000 cells/well; LNCaP, Detroit 562, MDA-MB-231 and MDA-MB-453 1500 cells/well. […] After the treatment, the luminescence signal was recorded using a microplate reader (BioTek Synergy 2 Multi-Mode Reader, BioTek, Winooski, VT, USA). Dose-response curves were generated by GraphPad Prism 8.4.2. software using a non-linear regression model (variable slope, four parameters), (see FIGS. 12-51).

[2] = system: FaDu (pharynx, squamous cell carcinoma) cells; assay: Cell viability assay, CellTiter-Glo (Example 21); format: cell-based, human; conditions: 72 h treatment
Procedure: as §1

[3] = system: MIA PaCa-2 (pancreas, carcinoma) cells; assay: Cell viability assay, CellTiter-Glo (Example 21); format: cell-based, human; conditions: 72 h treatment
Procedure: as §1

[4] = system: LNCaP (prostate, carcinoma) cells; assay: Cell viability assay, CellTiter-Glo (Example 21); format: cell-based, human; conditions: 72 h
Procedure: as §1

[5] = system: SCC-25 (tongue, squamous cell carcinoma) cells; assay: Cell viability assay, CellTiter-Glo (Example 21); format: cell-based, human; conditions: 72 h treatment
Procedure: as §1

[6] = system: Capan-1 (pancreas, adenocarcinoma) cells; assay: Cell viability assay, CellTiter-Glo (Example 21); format: cell-based, human; conditions: 72 h treatment
Procedure: as §1

[7] = system: DU 145 (prostate, carcinoma) cells; assay: Cell viability assay, CellTiter-Glo (Example 21); format: cell-based, human; conditions: 72 h
Procedure: as §1

[8] = system: PC-3 (prostate, adenocarcinoma) cells; assay: Cell viability assay, CellTiter-Glo (Example 21); format: cell-based, human; conditions: 72 h treatment
Procedure: as §1

[9] = system: EBC-1 (lung, squamous cell carcinoma) cells; assay: Cell viability assay, CellTiter-Glo (Example 21); format: cell-based, human; conditions: 72 h treatment
Procedure: as §1

[10] = system: MDA-MB-453 (breast, carcinoma) cells; assay: Cell viability assay, CellTiter-Glo (Example 21); format: cell-based, human; conditions: 72 h treatment
Procedure: as §1

[11] = system: Detroit 562 (pharynx, carcinoma) cells; assay: Cell viability assay, CellTiter-Glo (Example 21); format: cell-based, human; conditions: 72 h treatment
Procedure: as §1

[12] = system: Panc-1 (pancreas, carcinoma) cells; assay: Cell viability assay, CellTiter-Glo (Example 21); format: cell-based, human; conditions: 72 h treatment
Procedure: as §1

[13] = system: PANC-1 (human pancreatic carcinoma) cells; assay: Impedance-based viability assay (xCELLigence SP), long treatment; format: cell-based; conditions: 72 h, read-out: cytotoxicity expressed in IC50, PANC-1
Description: (Gibco®/Invitrogen Corporation, New York, NY, USA).
Data obtained from each experiment represent mathematical averages.

Panc-1 human cell line = assay: Cytotoxicity on Panc-1, xCELLigence SP, IC50 after 24 h, 48 h, 72 h and 96 h (Example 22)
[14] = system: EBC-1 lung cancer cell line; assay: High-throughput screening, CellTiter-Glo cell viability assay at 100 nM; format: cell-based, human; conditions: Homo sapiens, EBC-1, HTS, compounds at 100 nM, 72 h, read-out: cytotoxicity expressed in IC50, EBC-1 (results of High throughput screening)
Procedure: (§2) EBC-1 (obtained from JRCB, https://cellbank.nibiohn.go.jp/english/) and H2228 (obtained from ATCC https://www.lgcstandards-atcc.org/) cell lines were maintained according to the instructions provided by JRCB and ATCC in a 5% CO2 humidified incubator maintained at 37° C. temperature. Effect of compounds on cell viability was measured via CellTiter-Glo® luminescent cell viability assay (Promega, Madison, WI, USA). Cells were plated at 1000 cells/well onto a flat-bottomed, white 96 well plate (BRANDplates, cat. no.: 781965). After 24 h, cells were treated for 72 h with the compounds at 100 nM concentration. After the treatment, medium was removed and CellTiter-Glo® reagent was added. Untreated cells were used as control. The luminescence signal was recorded using a microplate reader (BioTek Synergy 2 Multi-Mode Reader, BioTek, Winooski, VT, USA). Cell viability data (% of untreated control cells) was evaluated with Microsoft Excel.

[15] = system: H2228 lung cancer cell line; assay: as above; format: cell-based, human; conditions: Homo sapiens, NCI-H2228, HTS, compounds at 100 nM, 72 h, read-out: cytotoxicity expressed in IC50, H2228 (results of High throughput screening)
Procedure: as §2

Compound: O=C1C2=C(CCN(Cc3cccc(F)c3)C2)N2CCN=C2N1Cc1ccc(F)cc1 [I/6, reference compound]
- MDA-MB-231 (breast, adenocarcinoma) cell viability (% of control) ([1]; 3.7 nM): 100.5 ± 5.4 % of control
- MDA-MB-231 (breast, adenocarcinoma) cell viability (% of control) ([1]; 11.1 nM): 99.4 ± 4.1 % of control
- MDA-MB-231 (breast, adenocarcinoma) cell viability (% of control) ([1]; 100 nM): 57.7 ± 3.8 % of control
- MDA-MB-231 (breast, adenocarcinoma) cell viability (% of control) ([1]; 300 nM): 57.4 ± 1.7 % of control
- FaDu (pharynx, squamous cell carcinoma) cell viability (% of control) ([2]; 3.7 nM): 97.9 ± 3.9 % of control
- FaDu (pharynx, squamous cell carcinoma) cell viability (% of control) ([2]; 11.1 nM): 97.8 ± 5.2 % of control
- FaDu (pharynx, squamous cell carcinoma) cell viability (% of control) ([2]; 100 nM): 27.3 ± 5.2 % of control
- FaDu (pharynx, squamous cell carcinoma) cell viability (% of control) ([2]; 300 nM): 25.2 ± 4.6 % of control
- MIA PaCa-2 (pancreas, carcinoma) cell viability (% of control) ([3]; 3.7 nM): 101.6 ± 10.8 % of control
- MIA PaCa-2 (pancreas, carcinoma) cell viability (% of control) ([3]; 11.1 nM): 110.7 ± 6.4 % of control
- MIA PaCa-2 (pancreas, carcinoma) cell viability (% of control) ([3]; 100 nM): 21.6 ± 9.1 % of control
- MIA PaCa-2 (pancreas, carcinoma) cell viability (% of control) ([3]; 300 nM): 19.5 ± 7.5 % of control
- LNCaP cell viability ([4]; 3.7 nM): 101.8 ± 5.6 % of control
- LNCaP cell viability ([4]; 11.1 nM): 97.9 ± 7.3 % of control
- LNCaP cell viability ([4]; 100 nM): 15.4 ± 2.0 % of control
- LNCaP cell viability ([4]; 300 nM): 14.4 ± 0.7 % of control
- SCC-25 (tongue, squamous cell carcinoma) cell viability (% of control) ([5]; 3.7 nM): 101.8 ± 4.3 % of control
- SCC-25 (tongue, squamous cell carcinoma) cell viability (% of control) ([5]; 11.1 nM): 96.2 ± 4.8 % of control
- SCC-25 (tongue, squamous cell carcinoma) cell viability (% of control) ([5]; 100 nM): 42.5 ± 1.8 % of control
- SCC-25 (tongue, squamous cell carcinoma) cell viability (% of control) ([5]; 300 nM): 41.5 ± 3.1 % of control
- Capan-1 (pancreas, adenocarcinoma) cell viability (% of control) ([6]; 3.7 nM): 105.9 ± 7.8 % of control
- Capan-1 (pancreas, adenocarcinoma) cell viability (% of control) ([6]; 11.1 nM): 106.0 ± 8.0 % of control
- Capan-1 (pancreas, adenocarcinoma) cell viability (% of control) ([6]; 100 nM): 40.1 ± 3.7 % of control
- Capan-1 (pancreas, adenocarcinoma) cell viability (% of control) ([6]; 300 nM): 37.4 ± 3.5 % of control
- DU 145 cell viability ([7]; 3.7 nM): 96.8 ± 3.7 % of control
- DU 145 cell viability ([7]; 11.1 nM): 93.4 ± 2.2 % of control
- DU 145 cell viability ([7]; 100 nM): 8.0 ± 1.4 % of control
- DU 145 cell viability ([7]; 300 nM): 7.9 ± 1.6 % of control
- PC-3 (prostate, adenocarcinoma) cell viability (% of control) ([8]; 3.7 nM): 103.6 ± 14.4 % of control
- PC-3 (prostate, adenocarcinoma) cell viability (% of control) ([8]; 11.1 nM): 108.7 ± 7.7 % of control
- PC-3 (prostate, adenocarcinoma) cell viability (% of control) ([8]; 100 nM): 35.3 ± 0.5 % of control
- PC-3 (prostate, adenocarcinoma) cell viability (% of control) ([8]; 300 nM): 34.1 ± 2.0 % of control
- EBC-1 (lung, squamous cell carcinoma) cell viability (% of control) ([9]; 3.7 nM): 101.0 ± 19.5 % of control
- EBC-1 (lung, squamous cell carcinoma) cell viability (% of control) ([9]; 11.1 nM): 101.7 ± 3.3 % of control
- EBC-1 (lung, squamous cell carcinoma) cell viability (% of control) ([9]; 100 nM): 25.1 ± 0.3 % of control
- EBC-1 (lung, squamous cell carcinoma) cell viability (% of control) ([9]; 300 nM): 24.1 ± 2.4 % of control
- MDA-MB-453 (breast, carcinoma) cell viability (% of control) ([10]; 3.7 nM): 113.6 ± 9.8 % of control
- MDA-MB-453 (breast, carcinoma) cell viability (% of control) ([10]; 11.1 nM): 103.7 ± 10.4 % of control
- MDA-MB-453 (breast, carcinoma) cell viability (% of control) ([10]; 100 nM): 33.9 ± 1.3 % of control
- MDA-MB-453 (breast, carcinoma) cell viability (% of control) ([10]; 300 nM): 32.0 ± 1.1 % of control
- Detroit 562 (pharynx, carcinoma) cell viability (% of control) ([11]; 3.7 nM): 99.8 ± 6.4 % of control
- Detroit 562 (pharynx, carcinoma) cell viability (% of control) ([11]; 11.1 nM): 50.9 ± 15.2 % of control
- Detroit 562 (pharynx, carcinoma) cell viability (% of control) ([11]; 100 nM): 31.6 ± 2.1 % of control
- Detroit 562 (pharynx, carcinoma) cell viability (% of control) ([11]; 300 nM): 33.0 ± 3.4 % of control
- Panc-1 (pancreas, carcinoma) cell viability (% of control) ([12]; 3.7 nM): 107.8 ± 16.0 % of control
- Panc-1 (pancreas, carcinoma) cell viability (% of control) ([12]; 11.1 nM): 109.1 ± 4.2 % of control
- Panc-1 (pancreas, carcinoma) cell viability (% of control) ([12]; 100 nM): 57.1 ± 0.1 % of control
- Panc-1 (pancreas, carcinoma) cell viability (% of control) ([12]; 300 nM): 57.2 ± 3.2 % of control
- IC50 [13]: < 0.1 µM
- IC50 (Panc-1 human cell line; PANC-1, 72 h, read-out: IC50 (72 h) [nM]): 126 ± 5.96 nM
- IC50 (Panc-1 human cell line; PANC-1, 96 h, read-out: IC50 (96 h) [nM]): 75.5 ± 6.76 nM
- IC50 [14]: < 0.1 µM
- IC50 [15]: < 0.1 µM
